Values of other authors as cited in paper PMC4153342 (Vaccine, 2014).

system: HLA-A2 on TAP-deficient/HLA-A2+ T2 cells; conditions: previously reported

Sequence | affinity for HLA-A2 in vitro
AMTKLGFKA [p57] | have affinity for HLA-A2
KASEKIFYV [p41] | have affinity for HLA-A2
MTFGRLQGI [p99] | have affinity for HLA-A2
RLQGISPKI [p103] | have affinity for HLA-A2
